# Test results from patent US20200038513A1, “MODULATORS OF FAK PROTEOLYSIS AND ASSOCIATED METHODS OF USE” (ARVINAS OPERATIONS, INC., priority 2018, published 2020).
# System: MDA-MB-231 cells
# Assay: RPPA (reverse phase protein array)
# Assay type: cell-based, human
# Description: RPPA analysis was performed by MD Anderson Cancer Center RPPA core facility.
# Examination of the Molecular Signaling Events) and/or Downstream Pathways Responsible for the Migration and Invasion Effects Observed by Exemplary Compound Treatment. To pinpoint these observations to a molecular signaling event or specific downstream pathway, reverse phase protein array (RPPA) analysis was performed (Table 4).
compound,measurement,setting,value
"CNC(=O)c1ccc(Nc2ncc(C(F)(F)F)c(NCc3nccnc3N(C)S(C)(=O)=O)n2)cc1 [Defactinib, defactinib, reference compound]","rel. Protein level, Merlin",1000nM,99.3%
same,"rel. Protein level, Mnk1",1000nM,97.5%
same,"rel. Protein level, Myosin-11",1000nM,100.9%
same,"rel. Protein level, Myosin-IIa_pS1943",1000nM,108.6%
same,"rel. Protein level, Myt1",1000nM,94.5%
same,"rel. Protein level, N-Cadherin",1000nM,107.8%
same,"rel. Protein level, N-Ras",1000nM,93.7%
same,"rel. Protein level, NAPSIN-A",1000nM,99.4%
same,"rel. Protein level, NDRG1_pT346",1000nM,103.5%
same,"rel. Protein level, NDUFB4",1000nM,96.3%
same,"rel. Protein level, NF-kB-p65_pS536",1000nM,105.0%
same,"rel. Protein level, Notch1",1000nM,96.2%
same,"rel. Protein level, Notch3",1000nM,105.9%
same,"rel. Protein level, Oct-4",1000nM,100.5%
same,"rel. Protein level, P-Cadherin",1000nM,104.3%
same,"rel. Protein level, PAI-1",1000nM,106.1%
same,"rel. Protein level, PAICS",1000nM,98.7%
same,"rel. Protein level, PAK1",1000nM,107.0%
same,"rel. Protein level, PAK4",1000nM,95.5%
same,"rel. Protein level, PAR",1000nM,135.9%
same,"rel. Protein level, PARP",1000nM,98.0%
same,"rel. Protein level, PCNA",1000nM,88.7%
same,"rel. Protein level, PD-1",1000nM,107.0%
same,"rel. Protein level, PD-L1",1000nM,92.6%
same,"rel. Protein level, PDGFR-b",1000nM,138.5%
same,"rel. Protein level, PDHK1",1000nM,102.5%
same,"rel. Protein level, PDK1",1000nM,99.8%
same,"rel. Protein level, PDK1_pS241",1000nM,97.4%
same,"rel. Protein level, PEA-15",1000nM,98.7%
same,"rel. Protein level, PEA-15_pS116",1000nM,97.0%
same,"rel. Protein level, PI3K-p85",1000nM,100.0%
same,"rel. Protein level, PI3K-p110-a",1000nM,103.7%
same,"rel. Protein level, PI3K-p110-b",1000nM,98.5%
same,"rel. Protein level, PKA-a",1000nM,99.6%
same,"rel. Protein level, PKC-b-II_pS660",1000nM,98.6%
same,"rel. Protein level, PKC-delta_pS664",1000nM,100.9%
same,"rel. Protein level, PKCa",1000nM,110.1%
same,"rel. Protein level, PKM2",1000nM,106.2%
same,"rel. Protein level, PLC-gamma2_pY759",1000nM,97.2%
same,"rel. Protein level, PLK1",1000nM,82.1%
same,"rel. Protein level, PMS2",1000nM,98.6%
same,"rel. Protein level, PR",1000nM,100.3%
same,"rel. Protein level, PRAS40",1000nM,98.3%
same,"rel. Protein level, PRAS40_pT246",1000nM,90.7%
same,"rel. Protein level, PREX1",1000nM,105.2%
same,"rel. Protein level, PTEN",1000nM,108.6%
same,"rel. Protein level, Paxillin",1000nM,105.5%
same,"rel. Protein level, Pdcd4",1000nM,117.5%
same,"rel. Protein level, Porin",1000nM,95.2%
same,"rel. Protein level, RBM15",1000nM,103.9%
same,"rel. Protein level, RIP",1000nM,103.7%
same,"rel. Protein level, RPA32",1000nM,96.8%
same,"rel. Protein level, RPA32_pS4-S8",1000nM,93.9%
same,"rel. Protein level, RSK",1000nM,104.4%
same,"rel. Protein level, Rab11",1000nM,101.7%
same,"rel. Protein level, Rab25",1000nM,97.8%
same,"rel. Protein level, Rad50",1000nM,104.7%
same,"rel. Protein level, Rad51",1000nM,102.1%
same,"rel. Protein level, Raptor",1000nM,98.9%
same,"rel. Protein level, Rb",1000nM,93.9%
same,"rel. Protein level, Rb_pS807_S811",1000nM,84.3%
same,"rel. Protein level, Rheb",1000nM,91.7%
same,"rel. Protein level, Rictor",1000nM,111.8%
same,"rel. Protein level, Rictor_pT1135",1000nM,90.0%
same,"rel. Protein level, S6",1000nM,102.7%
same,"rel. Protein level, S6_pS235_S236",1000nM,50.9%
same,"rel. Protein level, S6_pS240_S244",1000nM,49.1%
same,"rel. Protein level, b-Actin",1000nM,101.1%
same,"rel. Protein level, b-Catenin",1000nM,100.0%
same,"rel. Protein level, b-Catenin_pT41_S45",1000nM,98.3%
same,"rel. Protein level, c-Abl",1000nM,109.1%
same,"rel. Protein level, c-IAP2",1000nM,94.3%
same,"rel. Protein level, c-Jun_pS73",1000nM,92.7%
same,"rel. Protein level, c-Kit",1000nM,101.5%
same,"rel. Protein level, c-Met_pY1234_Y1235",1000nM,98.9%
same,"rel. Protein level, c-Myc",1000nM,95.9%
same,"rel. Protein level, cdc2_pY15",1000nM,90.1%
same,"rel. Protein level, cdc25C",1000nM,98.2%
same,"rel. Protein level, eEF2",1000nM,94.8%
same,"rel. Protein level, eEF2K",1000nM,116.4%
same,"rel. Protein level, eIF4E",1000nM,105.5%
same,"rel. Protein level, eIF4E_pS209",1000nM,95.7%
same,"rel. Protein level, eIF4G",1000nM,95.8%
same,"rel. Protein level, mTOR",1000nM,92.1%
same,"rel. Protein level, mTOR_pS2448",1000nM,88.3%
same,"rel. Protein level, p21",1000nM,100.5%
same,"rel. Protein level, p27-Kip-1",1000nM,96.7%
same,"rel. Protein level, p27_pT198",1000nM,96.4%
same,"rel. Protein level, p38-MAPK",1000nM,94.3%
same,"rel. Protein level, p38_pT180_Y182",1000nM,100.6%
same,"rel. Protein level, p44-42-MAPK",1000nM,108.2%
same,"rel. Protein level, p53",1000nM,93.7%
same,"rel. Protein level, p70-S6K1",1000nM,111.0%
same,"rel. Protein level, p70-S6K_pT389",1000nM,95.5%
same,"rel. Protein level, p90RSK_pT573",1000nM,98.9%
same,"rel. Protein level [%], SCD","antibody SCD, 1000nM, n = 2",98.9%
same,"rel. Protein level [%], SDHA","antibody SDHA, 1000nM, n = 2",103.8%
same,"rel. Protein level [%], SF2","antibody SF2, 1000nM, n = 2",95.8%
same,"rel. Protein level [%], SHP-2_pY542","antibody SHP-2_pY542, 1000nM, n = 2",97.2%
same,"rel. Protein level [%], SLC1A5","antibody SLC1A5, 1000nM, n = 2",111.6%
same,"rel. Protein level [%], SOD1-","antibody SOD1-, 1000nM, n = 2",97.7%
same,"rel. Protein level [%], SOD2","antibody SOD2, 1000nM, n = 2",106.0%
same,"rel. Protein level [%], STING","antibody STING, 1000nM, n = 2",135.4%
same,"rel. Protein level [%], Shc_pY317","antibody Shc_pY317, 1000nM, n = 2",104.3%
same,"rel. Protein level [%], Slfn11","antibody Slfn11, 1000nM, n = 2",95.9%
same,"rel. Protein level [%], Smac","antibody Smac, 1000nM, n = 2",99.9%
same,"rel. Protein level [%], Smad1","antibody Smad1, 1000nM, n = 2",97.8%
same,"rel. Protein level [%], Smad3","antibody Smad3, 1000nM, n = 2",102.3%
same,"rel. Protein level [%], Smad4","antibody Smad4, 1000nM, n = 2",95.2%
same,"rel. Protein level [%], Snail","antibody Snail, 1000nM, n = 2",101.3%
same,"rel. Protein level [%], Sox2","antibody Sox2, 1000nM, n = 2",100.5%
same,"rel. Protein level [%], Src","antibody Src, 1000nM, n = 2",103.9%
same,"rel. Protein level [%], Src_pY419","antibody Src_pY419, 1000nM, n = 2",99.6%
same,"rel. Protein level [%], Src_pY527","antibody Src_pY527, 1000nM, n = 2",93.7%
same,"rel. Protein level [%], Stat3","antibody Stat3, 1000nM, n = 2",92.9%
same,"rel. Protein level [%], Stat3_pY705","antibody Stat3_pY705, 1000nM, n = 2",100.5%
same,"rel. Protein level [%], Stat5a","antibody Stat5a, 1000nM, n = 2",108.2%
same,"rel. Protein level [%], Stathmin-1","antibody Stathmin-1, 1000nM, n = 2",99.3%
same,"rel. Protein level [%], Syk","antibody Syk, 1000nM, n = 2",95.8%
same,"rel. Protein level [%], TAZ","antibody TAZ, 1000nM, n = 2",100.5%
same,"rel. Protein level [%], TFAM","antibody TFAM, 1000nM, n = 2",101.4%
same,"rel. Protein level [%], TFRC","antibody TFRC, 1000nM, n = 2",96.3%
same,"rel. Protein level [%], TIGAR","antibody TIGAR, 1000nM, n = 2",100.5%
same,"rel. Protein level [%], TRIM25","antibody TRIM25, 1000nM, n = 2",99.8%
same,"rel. Protein level [%], TSC1","antibody TSC1, 1000nM, n = 2",102.5%
same,"rel. Protein level [%], TTF1","antibody TTF1, 1000nM, n = 2",95.4%
same,"rel. Protein level [%], TUFM","antibody TUFM, 1000nM, n = 2",98.4%
same,"rel. Protein level [%], TWIST","antibody TWIST, 1000nM, n = 2",97.7%
same,"rel. Protein level [%], Tau","antibody Tau, 1000nM, n = 2",102.9%
same,"rel. Protein level [%], Transglutaminase","antibody Transglutaminase, 1000nM, n = 2",93.5%
same,"rel. Protein level [%], Tuberin","antibody Tuberin, 1000nM, n = 2",101.7%
same,"rel. Protein level [%], Tuberin_pT1462","antibody Tuberin_pT1462, 1000nM, n = 2",93.6%
same,"rel. Protein level [%], Tyro3","antibody Tyro3, 1000nM, n = 2",98.5%
same,"rel. Protein level [%], U-Histone-H2B","antibody U-Histone-H2B, 1000nM, n = 2",113.8%
same,"rel. Protein level [%], UBAC1","antibody UBAC1, 1000nM, n = 2",99.7%
same,"rel. Protein level [%], UGT1A","antibody UGT1A, 1000nM, n = 2",98.6%
same,"rel. Protein level [%], ULK1_pS757","antibody ULK1_pS757, 1000nM, n = 2",102.1%
same,"rel. Protein level [%], VASP","antibody VASP, 1000nM, n = 2",100.5%
same,"rel. Protein level [%], VEGFR-2","antibody VEGFR-2, 1000nM, n = 2",93.5%
same,"rel. Protein level [%], VHL-EPPK1","antibody VHL-EPPK1, 1000nM, n = 2",88.7%
same,"rel. Protein level [%], WIPI1","antibody WIPI1, 1000nM, n = 2",102.3%
same,"rel. Protein level [%], WIPI2","antibody WIPI2, 1000nM, n = 2",106.2%
same,"rel. Protein level [%], Wee1","antibody Wee1, 1000nM, n = 2",95.3%
same,"rel. Protein level [%], Wee1_pS642","antibody Wee1_pS642, 1000nM, n = 2",95.2%
same,"rel. Protein level [%], XBP-1","antibody XBP-1, 1000nM, n = 2",89.5%
same,"rel. Protein level [%], XPA","antibody XPA, 1000nM, n = 2",83.5%
same,"rel. Protein level [%], XPF","antibody XPF, 1000nM, n = 2",100.5%
same,"rel. Protein level [%], XRCC1","antibody XRCC1, 1000nM, n = 2",102.3%
same,"rel. Protein level [%], YAP","antibody YAP, 1000nM, n = 2",93.7%
same,"rel. Protein level [%], YAP_pS127","antibody YAP_pS127, 1000nM, n = 2",103.1%
same,"rel. Protein level [%], YB1_pS102","antibody YB1_pS102, 1000nM, n = 2",82.7%
same,"rel. Protein level [%], ZAP-70","antibody ZAP-70, 1000nM, n = 2",95.1%
